From patent publication US7404948B2, “Peptidic conjugates for alopecia prevention and treatment” (Institut Europeen de Biologie Cellulaire, priority 2003, dated 2008)
Non-standard residues stand in square brackets, D forms with d. hPhe = N[C@@H](CCc1ccccc1)C(=O)O

Tested on: anagen-phase mouse vibrissae hair follicles
Test: Growth of mouse vibrissae in vitro (hair follicle culture, Philpott technique)
Type: cell-based
Set-up: unit not given here
Conditions: peptide 10^−7 M, A is acetic acid
From the text: The Effects of Various Peptides on the Growth of Mouse Vibrissae In Vitro
The growth of the hair shaft of these hair follicles was followed for several days (Day 0 to Day 4). The results are reported in the table below for peptides 1- and 2-described above, for which A is acetic acid.

Substance	growth of the hair shaft (Day 0)	growth of the hair shaft (Day 1)	growth of the hair shaft (Day 2)	growth of the hair shaft (Day 3)	growth of the hair shaft (Day 4)
A-Arg-Lys-Asp-Val-DHomoPhe-NH2 [Peptide 1-]	0.00	0.90	1.38	1.86	1.87
Ac-Arg-Lys-Asp-Val-HomoPhe-NH2 (Ac-RKDV[hPhe]-NH2; also: acetate salt) [Peptide 2-]	0.00	0.83	1.46	1.62	1.62
